Test results: paper PMC11251039, “Harnessing cholesterol uptake of malaria parasites for therapeutic applications” (EMBO Molecular Medicine, 2024)
Where “and” joins values, the source holds several entries; their conditions need not be identical. Equal entries are not always repeated.

Legend:
[1] = tested on: P. falciparum stage V gametocytes; assay: P. falciparum gametocyte viability assay (MitoTracker, flow cytometry), stage V; format: cell-based, Plasmodium falciparum; details: 48 h
Procedure, shortened: (§1)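 Magnetically enriched gametocytes, stage III-IV (day 7) or stage V (day 10), were exposed to serially diluted compounds in medium with 50 mM N-acetyl-D-glucosamine for 48 hours at 37 °C, microaerophilic. Staining with 500 nM MitoTracker Deep Red FM and Hoechst, then flow cytometry, gave percentage live versus dead gametocytes.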

[2] = tested on: human foreskin fibroblasts (HFF); assay: Human foreskin fibroblast growth inhibition assay (SYBR Safe); format: cell-based; details: Homo sapiens, Fibroblast; 72 h, HFF; read-out: IC50, human fibroblast growth inhibition
Procedure, shortened: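 About 5000 HFF cells per well incubated with compound serial dilutions for 72 hours at 37 °C, until confluent. Growth quantified by DNA content: freeze-thaw, then SYBR Safe (1/10,000 final) in lysis buffer, fluorescence 490/520 nm. 10 µg/mL cycloheximide defines background (no growth).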

[3] = tested on: human hepatoma cells (Huh7); assay: Human hepatoma viability assay (CellTiter-Blue); format: cell-based; details: Homo sapiens, Huh-7; 48 h, Huh7; read-out: IC50, human hepatoma inhibition (viability)
Procedure, shortened: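 Huh7 cells (10,000/well) were seeded and treated the next day with serially diluted compound or DMSO, with media partially renewed with fresh dilutions over two days.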

[4] = tested on: P. falciparum stage III–IV gametocytes; assay: P. falciparum gametocyte viability assay (MitoTracker, flow cytometry), stage III-IV; format: cell-based, Plasmodium falciparum; details: 48 h; for Gametocyte stage III-IV viability, percentage of control: replicate values, source data Fig. 2C
Procedure, shortened: as §1

SMILES: COc1cc(NC(C)CCCN)c2ncccc2c1 (stereo not shown) [Primaquine, primaquine, reference compound]
- Gametocyte stage V viability, percentage of control ([1]; 1.562500000 uM, replicate values, source data Fig. 2D, 1.5625 µM): 97.48% and 95.25% and 88.04%
- IC50 ([1]; Plasmodium falciparum, read-out: IC50, P. falciparum gametocyte stage V inhibition): 14.8 µM
- IC50 [2]: 41.8 µM
- IC50 [3]: 18.4 µM
- Gametocyte stage III-IV viability, percentage of control ([4]; 0.781250000 uM, 0.78125 µM): 95.42% and 99.73% and 94.08% and 101.8% and 105.1% and 104.7% and 100.9% (2×) and 98.19% and 96.58%
- Gametocyte stage III-IV viability, percentage of control ([4]; 1.562500000 uM, 1.5625 µM): 95.15% (2×) and 94.61% and 99.24% and 100.4% and 98.94% and 101.3% and 96.75% and 94.78% and 98.39% and 95.38%
- Gametocyte stage III-IV viability, percentage of control ([4]; 3.125000000 uM, 3.125 µM): 98.92% and 97.04% and 95.42% and 93.41% and 94.06% and 98.34% and 98.94% and 97.34% and 97.99% and 97.59%
- Gametocyte stage III-IV viability, percentage of control ([4]; 6.250000000 uM, 6.25 µM): 98.92% and 103.8% and 95.15% and 101.3% and 99.57% and 96.95% and 89.77% and 92.16% and 101.4% and 98.59% and 97.59%
- Gametocyte stage III-IV viability, percentage of control ([4]; 12.500000000 uM, 12.5 µM): 94.88% and 91.65% and 92.46% and 91.95% and 85.99% and 84% and 83.2% and 99.8% and 98.59% and 96.58%
- Gametocyte stage III-IV viability, percentage of control ([4]; 25.000000000 uM): 79.16% and 90.84% and 90.57% and 89.5% and 87.42% and 88.71% and 66.47% and 62.28% and 62.48% and 96.99% and 92.97% and 89.75%
- Gametocyte stage III-IV viability, percentage of control ([4]; 50.000000000 uM): 68.48% and 81.96% and 79.26% and 79.53% and 71.16% and 70.66% and 55.31% and 29.42% and 60.69% and 80.71% and 75.49% and 72.07%
- Gametocyte stage III-IV viability, percentage of control ([4]; 100.000000000 uM): 13.88% and 70.94% and 81.83% and 86.47% and 12.9% and 10.48% and -20.11% and -20.13% and -19.64% and 38.56% and 39.79% and 36.92%
- Gametocyte stage III-IV viability, percentage of control ([4]; 200.000000000 uM): -26.52% and -4.004% and -1.274% and -24.53% and -24.5% and -24.31% and -27.02% and -23.13% and -23.83%
- viability at 0.78125 µM ([4]; Plasmodium falciparum, read-out: Gametocyte stage III-IV viability, percentage of control, 0.781250000 uM, 48 h, replicate values, source data Fig. 2C): 101%
- viability at 1.5625 µM ([4]; Plasmodium falciparum, read-out: Gametocyte stage III-IV viability, percentage of control, 1.562500000 uM, 48 h, replicate values, source data Fig. 2C): 98.8%
- viability at 3.125 µM ([4]; Plasmodium falciparum, read-out: Gametocyte stage III-IV viability, percentage of control, 3.125000000 uM, 48 h, replicate values, source data Fig. 2C): 93.3%
- viability at 6.25 µM ([4]; Plasmodium falciparum, read-out: Gametocyte stage III-IV viability, percentage of control, 6.250000000 uM, 48 h, replicate values, source data Fig. 2C): 94.2%
- viability at 12.5 µM ([4]; Plasmodium falciparum, read-out: Gametocyte stage III-IV viability, percentage of control, 12.500000000 uM, 48 h, replicate values, source data Fig. 2C): 89%
- IC50 ([4]; Plasmodium falciparum, read-out: IC50, P. falciparum gametocyte stage III-IV inhibition): 60 µM
